≈ marks a conversion by molar mass, not a printed value.
Columns and labels:
[1] = system: S. aureus ATCC 25904; experiment: MIC determination on S. aureus ATCC 25904; type: cell-based; conditions: Staphylococcus aureus, ATCC25904, read-out: MIC S. aureus ATCC25904
Protocol: (§1) Further experiments are conducted using different strains of S. aureus, as clinically relevant Gram-positive bacterial strains: S. aureus ATCC 25904, methicillin-resistant S. aureus (MRSA) ATCC BAA-1556, Glycopeptide intermediate-resistant (GISA) S. aureus Mu-50 (ATCC 700695) in order to determine the Minimal Inhibitory Concentration (MIC) which is the minimal concentration required to prevent bacterial growth. The bioluminescent strain S. aureus Xen29 (ATCC 12600) was also used. This strain is derived from the parental strain S. aureus ATCC 12600, a pleural fluid isolate, which is also designated as NCTC8532.
(§2) A single colony selected from the different strains of S. aureus is resuspended and cultured in brain heart infusion (BHI) broth overnight (O/N) in aerobic conditions (37° C. with 220 rpm shaking), next day a 1:100 inoculum in Mueller-Hinton broth (MHB) is incubated in aerobic conditions for 3 hr (=OD0.08-0.1) and an inoculum of 1:300 dilution, corresponding to 3×10^5 CFU/ml, is incubated in presence or absence of different concentrations of the tested molecules in 1% DMSO. After O/N growth the OD of each culture was measured at 600 nm (OD600) in a spectrophotometer (Victor 3-Perkin Elmer). The MIC represents the concentration at which there is no visible growth of bacteria, i.e. ΔOD at 600 nm equal to zero (blank is the medium alone). […] The MIC of molecule 2329 against Glycopeptide intermediate-resistant (GISA) S. aureus Mu-50 (ATCC 700695) is in between 25 and 30 μM, while it is above 50 μM for molecules 2348, 2412, and 2452.

[2] = system: Glycopeptide intermediate-resistant (GISA) S. aureus Mu-50 (ATCC 700695); experiment: MIC determination on glycopeptide intermediate-resistant S. aureus; type: cell-based; conditions: Staphylococcus aureus, ATCC700695, read-out: MIC S. aureus GISA
Protocol: as §1, §2

[3] = system: vancomycin-resistant (VRE) E. faecalis ATCC BAA-2365; experiment: MIC determination on vancomycin-resistant E. faecalis; type: cell-based, Enterococcus faecalis; conditions: Mueller-Hinton broth (MHB)
Protocol: Further experiments were conducted using the clinically relevant Gram-positive bacterial strain of vancomycin-resistant (VRE) E. faecalis ATCC BAA-2365, in order to determine the Minimal Inhibitory Concentration (MIC) which is the minimal concentration required to prevent bacterial growth.
A single colony selected from E. faecalis VRE is resuspended and cultured in the brain heart infusion (BHI) broth overnight (O/N) in aerobic conditions (37° C. with 220 rpm shaking), next day a 1:100 inoculum in Mueller-Hinton broth (MHB) is incubated in aerobic conditions for 3 hr (OD=0.08-0.1) and an inoculum of 1:300 dilution, corresponding to 3×10^5 CFU/ml, is incubated in presence or absence of different concentrations of the tested molecules in 1% DMSO. After O/N growth the OD of each culture is measured at 600 nm (OD600) in a spectrophotometer (Victor 3-Perkin Elmer). The MIC represents the concentration at which there is no visible growth of bacteria, i.e. ΔOD at 600 nm equal to zero (blank is the medium alone).

[4] = system: Staphylococcus aureus (Xen29-ATCC 12600) biofilm formation; experiment: S. aureus Xen29 biofilm formation (bioluminescence imaging, IVIS); type: cell-based; conditions: imaged every 60 min for 13 hours; for biofilm formation (photon signal per surface unit): 10 μM, vs vehicle DMSO 1%; for biofilm formation (photon signal per second, radiance): 20 μM, vs vehicle
Protocol: (§3) Bioluminescent S. aureus (Xen29, Perkin Elmer-(ATCC 12600)) is grown overnight in TSB medium, before being diluted 100 fold in fresh TSB, and incubated aerobically at 37° C. until bacteria culture reached an OD600 of 0.6 (corresponding to approximately 1-3×10^8 CFU/ml). Bacteria cultures are then diluted to 1×10^4 CFU/ml in fresh TSB. 600 μl aliquots of diluted bacteria suspensions are distributed in each well of a 48-well plate. Bacteria are allowed to adhere for 3 hours under static conditions at 37° C. After removing media, wells are rinsed 2 times with PBS to eliminate planktonic bacteria and re-filled with TSB supplemented with 0.5% glucose
(§4) […] Biofilm formation is imaged every 60 min, for 13 hours, using a IVIS camera system (Xenogen Corp.) Total photon emission from each well is then quantified using the Living Image software package (Xenogen Corp.).
as §3, with “suspensions were” for “suspensions are”
as §4
as §3, with “was” for “(Xen29, Perkin Elmer-(ATCC 12600)) is”, “O/N” for “overnight”, “were” for “are”, “TSB and aliquots of” for “TSB.”, “were” for “aliquots of diluted bacteria suspensions are”, “glucose. Molecules 2666 and 2511 were then added at 20 μM final concentration. Biofilm formation is imaged every 60 min, for 13 hours, using a IVIS camera system (Xenogen Corp.) Total photon emission from each well (photon/second:p/s) is then quantified using the Living Image software package (Xenogen Corp.).” for “glucose”

[5] = system: MRSA; experiment: Minimal Bactericidal Concentration (MBC) for MRSA; type: cell-based, Staphylococcus aureus; conditions: for MBC: Staphylococcus aureus, MRSA, 99.9% of initial inoculum killed over 24 hours
Protocol: We have determined the Minimal Bactericidal Concentration (MBC) of the pyrazolopyrimidine molecule 2666 for the MRSA strain and the MBC of the purine molecules 2329 and 2833 for MRSA and the MRSE strain respectively.
To determine the MBC, bacteria were grown as per MIC determination in presence of the pyrazolopyrimidine molecule 2666 for MRSA or in presence of the purine molecule 2833 for MRSE or 2329 for MRSA. At 24 hours bacteria were plated on TSB agar plates by the broth microdilution method, and colonies formed on the plates were counted next day.
The MBC represents the lowest concentration at which 99.9% bacteria of the initial inoculum are killed over 24 hours.

Row | Compound | MIC [1] | MIC [2] | MIC [3] | biofilm formation (photon signal per surface unit) [4] | MBC relative to MIC, MRSA [5] | MBC [5] | biofilm formation (photon signal per second, radiance) [4]
1 | CCCSc1nc(N[C@@H]2C[C@H]2c2ccc(F)c(F)c2)c2ncn(C)c2n1 [Molecule 2329, N-((1R,2S)-2-(3,4-difluorophenyl)cyclopropyl)-9-methyl-2-(propylthio)-9H-purin-6-amine] | 20 to 25 µM (≈ 7.51 to 9.39 µg/mL) | 25 to 30 µM (≈ 9.39 to 11.3 µg/mL) | 25 µM (≈ 9.39 µg/mL) | fully prevented biofilm formation | around 2 times | 40 µM (≈ 15 µg/mL) | 
2 | CCCSc1nc(N[C@@H]2C[C@H]2c2ccc(F)c(F)c2)c2ncn(CC)c2n1 [Molecule 2348, N-((1R,2S)-2-(3,4-difluorophenyl)cyclopropyl)-9-ethyl-2-(propylthio)-9H-purin-6-amine] | 20 to 25 µM (≈ 7.79 to 9.74 µg/mL) | > 50 µM | > 50 µM | fully prevented biofilm formation |  |  | 
3 | C=CCn1cnc2c(N[C@@H]3C[C@H]3c3ccc(F)c(F)c3)nc(SCCC)nc21 [Molecule 2412, 9-allyl-N-((1R,2S)-2-(3,4-difluorophenyl)cyclopropyl)-2-(propylthio)-9H-purin-6-amine] | 20 to 25 µM (≈ 8.03 to 10 µg/mL) | > 50 µM | > 50 µM | delay biofilm formation |  |  | 
4 | C#CCn1cnc2c(N[C@@H]3C[C@H]3c3ccc(F)c(F)c3)nc(SCCC)nc21 [Molecule 2452, N-((1R,2S)-2-(3,4-difluorophenyl)cyclopropyl)-9-(prop-2-yn-1-yl)-2-(propylthio)-9H-purin-6-amine] | 20 to 25 µM (≈ 7.99 to 9.99 µg/mL) | > 50 µM | > 50 µM | delay biofilm formation |  |  | 
5 | CCn1cnc2c(N[C@@H]3C[C@H]3c3ccc(F)c(F)c3)nc(SC)nc21 [Molecule 2511, N-((1R,2S)-2-(3,4-difluorophenyl)cyclopropyl)-9-ethyl-2-(methylthio)-9H-purin-6-amine] |  |  |  |  |  |  | inhibited biofilm growth
6 | CCSc1nc(N[C@@H]2C[C@H]2c2ccc(F)c(F)c2)c2cnn(C)c2n1.Cl [Molecule 2666, N-((1R,2S)-2-(3,4-difluorophenyl)cyclopropyl)-6-(ethylthio)-1-methyl-1H-pyrazolo[3,4-d]pyrimidin-4-amine hydrochloride] |  |  |  |  | around 2 times | 40 µM | inhibited biofilm growth

Source: patent US11434241B2, “Pyrimidine derivatives for prevention and treatment of bacterial infections” (UNIVERSITE DE LIEGE, priority 2018, dated 2022)
